Where no end group is shown, it is not given here.
Test system: PBMC from healthy HCMV seropositive donors
Experiment: IFN-γ ELISPOT assay
Assay type: cell-based, human
Conditions: peptide 10 μg/ml
Protocol: ELISPOT assay was used to assess whether stimulation of PBMC from a large panel of seropositive donors with HCMV peptides could induce IFN-γ expression in T cells. Briefly, a 96-well nitrocellulose plate (Multiscreen, Millipore) was coated overnight at 4° C. with mouse monoclonal antibody anti-IFN-γ IgG1 (10 μg/ml; Mabtech Nacka, Sweden). The plate was then washed six times in Phosphate Buffered Saline (PBS) and blocked for 1 hour at 37° C. with PBS supplemented with 5% FCS. The blocking solution was removed and PBMC from healthy HCMV seropositive donors were added at a concentration of 2.5×10^5 cells per well in growth medium. These cells were incubated for 18 h at 37° C. in a 5% CO2 atmosphere in the presence of synthetic peptides from HCMV antigens (10 μg/ml). After incubation, the plate was washed three times with PBS supplemented with 0.05% Tween, followed by three washes with PBS alone. Biotinylated anti-IFN-γ (Mabtech, Nacka Sweden) detection antibody was added to each well at a final concentration of 1 μg/ml in PBS. The plates were incubated at room temperature in the dark for 4 h and then washed, as described above. Streptavidin-Alkaline phosphatase (Sigma) was added to each well at a final concentration of 1 μg/ml in PBS and incubated at room temperature in the dark for 2 h. After a final wash with PBS, the substrate, 5-bromo-4-chloro-3-indolyl phosphate and nitro blue tetrazolium, was added to each well and the plates incubated for 30 min at RT. Cells that produced IFN-γ in response to the presence of peptide were detected as purple spots on the nitrocellulose membrane of each well. The spots were counted automatically using a closed-circuit camera (CCD) and ImagePro image analysis software or automated ELISPOT reader (AID, Germany). The T cell precursor frequency for each peptide was based on the total number of PBMC in the well and the number of peptide-specific spots per well, over an average of 3 wells. The number of peptide-specific spots was also calculated by subtracting the negative control values, which consisted of PBMC without peptide (an average of 3 wells), from the test wells.
To determine whether memory CTL responses against the predictive HCMV potential epitopes could be detected in healthy seropositive virus carriers, we used the ELISPOT assay, which allows rapid identification of CTL epitopes without prolonged in vitro culture.
We tested epitopes that were restricted for HLA A1, A3, A24, A26, B7, B8, B27, B35 and B44 in ELISPOT assays, to determine whether memory T cell responses could be detected in healthy HLA-matched virus carriers. PBMC from a cohort of healthy virus carriers (Table 2) were stimulated with individual peptides and the cells that produced IFN-γ were detected. CTL epitopes that were restricted through either HLA A1, A3, A24, A26, B7, B8 or B27, were identified.
Thus, a total of 450 peptides were produced. ELISPOT assays were used to determine whether ex vivo memory T cell responses could be detected in a cohort of 14 healthy virus carriers (Table 2). PBMC were stimulated with individual peptides and the cells that produced IFN-γ were detected.

| Sequence | ELISPOT Responses (SFC/10^6 PBMC) (donor epsilon) | ELISPOT Responses (SFC/10^6 PBMC) (donor sixteen) | other results |
| --- | --- | --- | --- |
| HRQDALPGPCIASTPKKHRG | SC(109) SFC/10^6 PBMC | – | – |
| KDVALRHVVCAHELVCSMEN | – | TC(50) SFC/10^6 PBMC | – |
| IGDQYVKVY | – | 67 SFC/10^6 PBMC | ELISPOT Responses (SFC/10^6 PBMC) (donor eleven): 565 SFC/10^6 PBMC |
| THQLCPRSSDYRNMIIHAAT (human cytomegalovirus IE2 CTL epitope peptide) | 173 SFC/10^6 PBMC | 124 SFC/10^6 PBMC | – |
| NIEFFTKNSAFPKTTNGCSQ (human cytomegalovirus IE1 CTL epitope peptide) | – | – | ELISPOT Responses (SFC/10^6 PBMC) (donor fifteen): CP(1767) SFC/10^6 PBMC |
| NTDFRVLEL (human cytomegalovirus gB CTL epitope peptide) | – | TC(1631) SFC/10^6 PBMC | – |
| PVDLLGALNLCLPLMQKFPK (human cytomegalovirus IE2 CTL epitope peptide) | 111 SFC/10^6 PBMC | 169 SFC/10^6 PBMC | – |
| TENGSFVAGY (human cytomegalovirus UL18 CTL epitope peptide) | – | – | ELISPOT Responses (SFC/10^6 PBMC) (donor five): CS(283) SFC/10^6 PBMC |
| WQPAAQPKRRRHRQDALPGP | SC(615) SFC/10^6 PBMC | – | – |
| STSQKPVLGKRVATPHASAR (human cytomegalovirus pp150 CTL epitope peptide) | – | – | ELISPOT Responses (SFC/10^6 PBMC) (donor three): MW(215) SFC/10^6 PBMC |
| ASSPSTGSGTPRBTSPTHPL (ASSPSTGSGTPRXTSPTHPL; not fully specified) | – | – | ELISPOT Responses (SFC/10^6 PBMC) (donor eight): JW(95) SFC/10^6 PBMC |
| RGDPFDKNY (human cytomegalovirus pp50 CTL epitope peptide) | – | 2739 SFC/10^6 PBMC | ELISPOT Responses (SFC/10^6 PBMC) (donor nine): 720 SFC/10^6 PBMC |
| VKESPGRCY (human cytomegalovirus gB CTL epitope peptide) | – | TC(51) SFC/10^6 PBMC | – |
| CTPNVQTRRGRVKIDEVSRM | – | TC(89) SFC/10^6 PBMC | – |
| MLPLIKQEDIKPEPDFTIQY | – | – | ELISPOT Responses (SFC/10^6 PBMC) (donor seven): SB(132) SFC/10^6 PBMC |
| PRVTSPTHPLSQMNHPPLPD | – | 96 SFC/10^6 PBMC | ELISPOT Responses (SFC/10^6 PBMC) (donor eight): 52 SFC/10^6 PBMC |
| FETSGGLVVFWQGIKQKSLV (human cytomegalovirus gB CTL epitope peptide) | – | – | ELISPOT Responses (SFC/10^6 PBMC) (donor four): 23 SFC/10^6 PBMC; ELISPOT Responses (SFC/10^6 PBMC) (donor seven): 185 SFC/10^6 PBMC |
| YRHTWDRHDEGAAQGDDDVW | SC(295) SFC/10^6 PBMC | – | – |
| RPSTPRAAV (human cytomegalovirus pp150 CTL epitope peptide) | – | – | ELISPOT Responses (SFC/10^6 PBMC) (donor four): MB(306) SFC/10^6 PBMC |
| LTVSGLAWTRQQNQWKEPDV | SC(695) SFC/10^6 PBMC | – | – |
| DEEEAIVAY (human cytomegalovirus IE1 CTL epitope peptide) | – | TC(3903) SFC/10^6 PBMC | – |
| RRKMMYMCYRNIEFFTKNSA (human cytomegalovirus IE1 CTL epitope peptide) | – | – | ELISPOT Responses (SFC/10^6 PBMC) (donor fifteen): CP(632) SFC/10^6 PBMC |
| IKEHMLKKY (human cytomegalovirus IE1 CTL epitope peptide) | – | TC(4232) SFC/10^6 PBMC | – |
| YRNMIIHAATPVDLLGALNL (human cytomegalovirus IE2 CTL epitope peptide) | 229 SFC/10^6 PBMC | TC(137) SFC/10^6 PBMC | ELISPOT Responses (SFC/10^6 PBMC) (donor eight): 132 SFC/10^6 PBMC |
| TSAGRKRKSASSATACTSGV | SC(138) SFC/10^6 PBMC | – | – |
| GLDRNSGNY (human cytomegalovirus pp50 CTL epitope peptide) | – | 507 SFC/10^6 PBMC | ELISPOT Responses (SFC/10^6 PBMC) (donor three): 345 SFC/10^6 PBMC |

From US7524503B2, “Human cytomegalovirus (HCMV) cytotoxic T cell epitopes, polyepitopes compositions comprising same and diagnostic and prophylactic and therapeutic uses therefor” (priority 2001, dated 2009)
